System: symptoms of restless legs syndrome (RLS)
Assay: Treatment of RLS patient, Case No. 1
Assay type: in vivo, human
Conditions: L-Dopa treatment before neem

## N[C@@H](Cc1ccc(O)c(O)c1)C(=O)O [L-Dopa]
  symptoms of RLS under exposure to L-Dopa: did not completely cease

Source: patent US12029771B2, “Neem for treatment of RLS” (priority 2018, dated 2024)
